# Test results taken from article PMC6302548, “Dual Inhibition of the Lactate Transporters MCT1 and MCT4 Is Synthetic Lethal with Metformin due to NAD+ Depletion in Cancer Cells” (Cell Reports, 2018).
# pIC50: −log10 of the molar value.
# How the values were obtained:
# [1] = biological target: T1, MCT4 (monocarboxylate transporter 4) (Homo sapiens, UniProt O15427); test: intracellular lactate accumulation and 3H-lactate efflux in HAP1 MCT1-KO cells; DARTS in HCT116 membrane extracts; assay type: cell-based
# T1 construct: gene SLC16A3
# T1 sequence (O15427 2-465): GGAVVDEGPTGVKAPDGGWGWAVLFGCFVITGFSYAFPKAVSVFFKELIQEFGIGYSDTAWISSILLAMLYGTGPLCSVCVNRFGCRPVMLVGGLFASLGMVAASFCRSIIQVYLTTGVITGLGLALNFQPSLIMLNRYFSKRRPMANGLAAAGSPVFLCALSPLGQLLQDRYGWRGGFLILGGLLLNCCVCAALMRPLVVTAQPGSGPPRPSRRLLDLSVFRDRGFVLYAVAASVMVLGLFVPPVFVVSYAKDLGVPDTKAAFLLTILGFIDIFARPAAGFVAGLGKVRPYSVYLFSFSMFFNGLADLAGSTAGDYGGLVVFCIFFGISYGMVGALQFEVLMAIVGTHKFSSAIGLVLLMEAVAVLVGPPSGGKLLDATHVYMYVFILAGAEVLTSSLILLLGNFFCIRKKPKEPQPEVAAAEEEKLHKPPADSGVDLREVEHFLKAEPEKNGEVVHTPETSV
# T1 sequence (P35613 22-385 partner): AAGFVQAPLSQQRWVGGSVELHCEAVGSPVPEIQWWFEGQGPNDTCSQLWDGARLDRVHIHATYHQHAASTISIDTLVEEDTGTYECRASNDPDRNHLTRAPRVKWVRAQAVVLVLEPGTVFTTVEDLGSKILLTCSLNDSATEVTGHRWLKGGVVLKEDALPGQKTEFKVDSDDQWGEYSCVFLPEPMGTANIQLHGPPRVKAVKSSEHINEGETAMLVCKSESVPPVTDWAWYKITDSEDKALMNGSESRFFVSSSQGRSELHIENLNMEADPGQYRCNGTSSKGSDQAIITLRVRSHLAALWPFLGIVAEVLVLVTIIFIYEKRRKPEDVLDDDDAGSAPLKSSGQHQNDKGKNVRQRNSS
# [2] = biological target: T2, MCT1 (monocarboxylate transporter 1) (Homo sapiens, UniProt P53985); test: intracellular lactate accumulation and 3H-lactate efflux in HAP1 MCT4-KO cells; DARTS in HCT116 membrane extracts
# T2 construct: gene SLC16A1
# T2 sequence (P53985 1-500): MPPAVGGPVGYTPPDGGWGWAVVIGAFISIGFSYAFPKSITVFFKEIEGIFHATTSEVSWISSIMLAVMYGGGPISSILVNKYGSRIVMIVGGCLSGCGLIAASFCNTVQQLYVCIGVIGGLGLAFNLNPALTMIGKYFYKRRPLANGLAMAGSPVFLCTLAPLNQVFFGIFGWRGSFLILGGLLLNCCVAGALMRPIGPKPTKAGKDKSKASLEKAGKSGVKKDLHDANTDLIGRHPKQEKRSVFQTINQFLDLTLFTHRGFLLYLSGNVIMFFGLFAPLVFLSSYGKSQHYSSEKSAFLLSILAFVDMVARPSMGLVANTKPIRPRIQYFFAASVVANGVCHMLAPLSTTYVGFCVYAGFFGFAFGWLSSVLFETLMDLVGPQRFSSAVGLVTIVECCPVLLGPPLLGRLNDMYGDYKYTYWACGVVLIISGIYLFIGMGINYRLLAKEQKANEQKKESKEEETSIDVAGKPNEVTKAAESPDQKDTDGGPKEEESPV
# T2 sequence (P35613 22-385 partner): T1 sequence (P35613 22-385 partner)
structure (smiles),measurement,setting,value
CCOC(=O)Oc1c(OC)cc(C(=O)O[C@@H]2C[C@@H]3CN4CCc5c([nH]c6cc(OC)ccc56)[C@H]4C[C@@H]3[C@H](C(=O)OC)[C@H]2OC)cc1OC [Syrosingopine],pIC50,[1],~7.40
same,pIC50,[2],~5.60
